# Assay results taken from US20110269130A1, “Antibiotice Susceptibility Profiling Methods” (priority 2008, published 2011).
# What was measured:
# [1] = tested on: S. aureus POS 3663 (MRSA); experiment: PNA-FISH antibiotic susceptibility test, MRSA; type: cell-based; details: OX at concentrations as high as 8 μg/mL, 6 hr incubation in Phoenix AST broth, 10^5 CFU/ml, PNA-FISH fluorescence imaging
# Description: (§1) S. aureus ATCC 29213 and S. aureus POS 3663 cultures with a concentration of 10^5CFU/ml were divided into six 400 μl subsamples and incubated with or without OX antibiotic for 0 or 6 hours in Phoenix AST broth as indicated in the following table.
# (§2) Each subsample was placed into separate 1.5 mL microcentrifuge tubes following incubation. The tubes were centrifuged at 5000 rpm for 3 minutes and the supernatants were discarded. The bacteria were resuspended in […] of 80% ethanol and incubated for 5 minutes at room temperature and then centrifuged at 5000 rpm for 3 minutes. The supernatants were discarded and the bacteria were resuspended in one drop (approximately 25 μL) of the S. aureus-specific PNA-probe solution from the PNA FISH Kit and incubated for 1.5 hours at 55° C. After hybridization, 500 μL of the washing solution from the PNA FISH Kit was added and the tubes were incubated at 55° C. for 30 minutes. The tubes were centrifuged 10,000 rpm for 3 minutes and the supernatants were discarded. The bacterial pellets were resuspended in 150 μL PBS, and 40 μL of each subsample was transferred onto a 0.2 μm pore-size polycarbonate membrane using a flow-through device. The membrane was then transferred to a glass slide and covered with a cover slip. The membrane was then imaged using a fluorescence microscope.
# [2] = tested on: S. aureus ATCC 29213 (wild type); experiment: PNA-FISH antibiotic susceptibility test, wild type S. aureus; type: cell-based; details: OX 2 μg/mL and higher (2, 4, 8 μg), 6 hr incubation in Phoenix AST broth, 10^5 CFU/ml, PNA-FISH fluorescence imaging
# Description: as §1, §2
smiles,measurement,setting,value
Cc1onc(-c2ccccc2)c1C(=O)N[C@@H]1C(=O)N2[C@@H]1SC(C)(C)[C@@H]2C(=O)O [oxacillin],effect of oxacillin (OX) on the growth of resistant S. aureus POS 3663,[1],had no effect on the growth
same,effect of oxacillin (OX) on the growth of resistant S. aureus POS 3663,[1]; listed as OX,continues to grow
same,effect of oxacillin (OX) on the growth of wild type S. aureus ATCC 29213,[2],killed the bacteria
same,effect of oxacillin (OX) on the growth of wild type S. aureus ATCC 29213,[2]; listed as OX,most of the wild type S. aureus were killed
